For this experiment, the system named is CD2F1 mice, L1210 leukemia ip, survival T/C. As to the kind of experiment: NCI In Vivo Anticancer Drug Screen. Data for tumor model L1210 Leukemia (intraperitoneal) in CD2F1 (CDF1) mice. The settings on record: endpoint: mean survival time, higher = longer survival. The procedure, abridged: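 Transplantable tumor in mice; compound-treated vs vehicle-treated groups. Read-out = treated/control ratio of the measured endpoint.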

The mark [1] stands for this setting: dose: 100.0 mg/kg/injection, schedule: Q04DX003 (ip), vehicle: saline with Tween-80.
The mark [2] stands for this setting: dose: 200.0 mg/kg/injection, schedule: Q04DX003 (ip), vehicle: saline with Tween-80.
Where [3] appears, read: dose: 400.0 mg/kg/injection, schedule: Q04DX003 (ip), vehicle: saline with Tween-80.
Where [4] appears, read: dose: 75.0 mg/kg/injection, schedule: Q01DX001 (ip), vehicle: saline.
Setting [5] is: dose: 25.0 mg/kg/injection, schedule: Q01DX009 (ip), vehicle: saline with Tween-80.
Where [6] appears, read: dose: 50.0 mg/kg/injection, schedule: Q01DX009 (ip), vehicle: saline with Tween-80.
The mark [7] stands for this setting: dose: 100.0 mg/kg/injection, schedule: Q01DX009 (ip), vehicle: saline with Tween-80.
The mark [8] stands for this setting: dose: 200.0 mg/kg/injection, schedule: Q01DX009 (ip), vehicle: saline with Tween-80.
The mark [9] stands for this setting: dose: 400.0 mg/kg/injection, schedule: Q01DX009 (ip), vehicle: saline with Tween-80.
Setting [10] is: dose: 100.0 mg/kg/injection, schedule: Q01DX001 (ip), vehicle: saline.
[11] abbreviates: dose: 200.0 mg/kg/injection, schedule: Q01DX001 (ip), vehicle: saline.
Setting [12] is: dose: 400.0 mg/kg/injection, schedule: Q01DX001 (ip), vehicle: saline.

Inconclusive results and toxic doses are left out.

For the molecule `COc1ccc2c(c1)CCc1cnn(C3OC(COC(C)=O)C(OC(C)=O)C(OC(C)=O)C3OC(C)=O)c1-2` (stereo not drawn), the T/C (dose: 12.5 mg/kg/injection, schedule: Q01DX005 (ip), vehicle: other) is 92 % of control; the T/C (dose: 25.0 mg/kg/injection, schedule: Q01DX005 (ip), vehicle: other) is 90 % of control; the T/C (dose: 50.0 mg/kg/injection, schedule: Q01DX005 (ip), vehicle: other) is 87 % of control.

With `O=C(O)c1cc([N+](=O)[O-])cc([N+](=O)[O-])c1`, the T/C by setting is: under setting [1], 97 % of control; under setting [2], 97 % of control; under setting [3], 101 % of control.

On to `O=C1c2ccccc2C(=O)c2c(Cl)cc(Cl)cc21`, for which the T/C by setting is: under setting [4], 103 % of control; (dose: 150.0 mg/kg/injection, schedule: Q01DX001 (ip), vehicle: saline) 111 % of control; (dose: 300.0 mg/kg/injection, schedule: Q01DX001 (ip), vehicle: saline) 102 % of control.

Consider `OCC1OC(n2ncc3c(N/N=C/c4ccc(N(CCCl)CCCl)cc4)ncnc32)C(O)C1O` (stereo not drawn), for which the T/C under setting [5] is 102 % of control; the T/C under setting [6] was 93 % of control; the T/C under setting [7] is 102 % of control; the T/C under setting [8] is 89 % of control; the T/C under setting [9] is 93 % of control.

For `CC/C=C(CC)\C(=C\CC)CC`, the T/C is 100 % of control under setting [6], 100 % of control under setting [7] and 107 % of control under setting [8].

For the molecule `CCNC(=O)OCc1cn2c(c1COC(=O)NCC)CCC2`, the T/C runs as follows: (dose: 0.78 mg/kg/injection, schedule: Q04DX003 (ip), vehicle: other) 101 % of control; (dose: 1.56 mg/kg/injection, schedule: Q04DX003 (ip), vehicle: other) 87 % of control; (dose: 3.13 mg/kg/injection, schedule: Q04DX003 (ip), vehicle: other) 92 % of control; (dose: 6.25 mg/kg/injection, schedule: Q04DX003 (ip), vehicle: other) 92 % of control; (dose: 12.5 mg/kg/injection, schedule: Q04DX003 (ip), vehicle: other) 97 % of control.

Turning to `C=C(C)CC1(CC)C(=O)NC(=S)NC1=O`, the T/C by setting is: under setting [6], 102 % of control; under setting [7], 101 % of control.

With `CC1(C)CCCC2(C)C1C(=O)C=CC2(O)CCc1ccoc1.CC12CCc3ccoc3C1CCC1(C(=O)O)C(CO)=CCCC12.[Ag]` (stereo not drawn), the T/C was 103 % of control (dose: 75.0 mg/kg/injection, schedule: Q04DX002 (ip), vehicle: other); 115 % of control (dose: 150.0 mg/kg/injection, schedule: Q04DX002 (ip), vehicle: other); 107 % of control (dose: 300.0 mg/kg/injection, schedule: Q04DX002 (ip), vehicle: other).

Take `CN1CCN(C(=O)Nc2ccc(N=Nc3ccccc3)cc2)CC1`: the T/C by setting is: (dose: 25.0 mg/kg/injection, schedule: Q04DX003 (ip), vehicle: saline with Tween-80) 95 % of control; (dose: 50.0 mg/kg/injection, schedule: Q04DX003 (ip), vehicle: saline with Tween-80) 95 % of control; under setting [1], 88 % of control.

For `O=c1ccc2c([nH]1)CCCC2`, the T/C under setting [6] was 92 % of control, the T/C under setting [7] was 103 % of control and the T/C under setting [8] is 103 % of control.

In the case of `N=C1c2ccccc2-c2ccccc21`, the T/C was 101 % of control under setting [6] and 96 % of control under setting [7].

On to `CC1=C(C)CS(=O)(=O)N(c2ccccc2)C1`, for which the T/C by setting is: (dose: 100.0 mg/kg/injection, schedule: Q01DX001 (ip), vehicle: saline with Tween-80) 101 % of control; under setting [7], 98 % of control; (dose: 200.0 mg/kg/injection, schedule: Q01DX001 (ip), vehicle: saline with Tween-80) 98 % of control; under setting [8], 95 % of control; (dose: 400.0 mg/kg/injection, schedule: Q01DX001 (ip), vehicle: saline with Tween-80) 86 % of control; under setting [9], 95 % of control.

Turning to `C[n+]1cccc(C=O)c1`, the T/C under setting [10] was 103 % of control, the T/C under setting [11] is 105 % of control and the T/C under setting [12] was 108 % of control.

Take `COc1ccc2[nH]cc(CN(C)C)c2c1`: the T/C under setting [5] was 100 % of control; the T/C (dose: 33.0 mg/kg/injection, schedule: Q01DX009 (ip), vehicle: saline with Tween-80) was 101 % of control; the T/C under setting [6] was 106 % of control; the T/C under setting [7] is 105 % of control; the T/C under setting [1] is 88 % of control.

Take `c1ccc(CCN2CCCCC2)nc1`: the T/C runs as follows: (dose: 3.13 mg/kg/injection, schedule: Q04DX003 (ip), vehicle: saline with Tween-80) 93 % of control; (dose: 6.25 mg/kg/injection, schedule: Q04DX003 (ip), vehicle: saline with Tween-80) 93 % of control.

Take `Cc1ncc(C(=O)O)n1Cc1ccccc1`: the T/C under setting [7] is 94 % of control, the T/C under setting [8] was 94 % of control and the T/C under setting [9] was 92 % of control.

As to `COc1ccc2c(c1)C1(C)CCC(=O)C(C)C1CC2` (stereo not drawn), the T/C by setting is: under setting [10], 94 % of control; under setting [11], 96 % of control; under setting [12], 96 % of control.

Take `NC(=O)CC(NC(=O)CCl)C(=O)O` (stereo not drawn): the T/C under setting [1] is 101 % of control, the T/C under setting [2] was 92 % of control and the T/C under setting [3] is 92 % of control.

For the molecule `CCOC(=O)C1=C(C#N)C2(CCC(OCc3ccccc3)CC2)C(=O)O1` (stereo not drawn), the T/C is, setting by setting: (dose: 12.5 mg/kg/injection, schedule: Q01DX009 (ip), vehicle: saline) 95 % of control; (dose: 12.5 mg/kg/injection, schedule: Q01DX009 (ip), vehicle: suspension in saline) 106 % of control; (dose: 25.0 mg/kg/injection, schedule: Q01DX009 (ip), vehicle: saline) 100 % of control; (dose: 25.0 mg/kg/injection, schedule: Q01DX009 (ip), vehicle: suspension in saline) 106 % of control; (dose: 50.0 mg/kg/injection, schedule: Q01DX009 (ip), vehicle: saline) 107 % of control; (dose: 50.0 mg/kg/injection, schedule: Q01DX009 (ip), vehicle: suspension in saline) 108 % of control. Besides, the T/C is 106 % of control (dose: 100.0 mg/kg/injection, schedule: Q01DX009 (ip), vehicle: saline); 106 % of control (dose: 100.0 mg/kg/injection, schedule: Q01DX009 (ip), vehicle: suspension in saline); 106 % of control (dose: 200.0 mg/kg/injection, schedule: Q01DX009 (ip), vehicle: saline); 100 % of control (dose: 200.0 mg/kg/injection, schedule: Q01DX009 (ip), vehicle: suspension in saline); 108 % of control (dose: 400.0 mg/kg/injection, schedule: Q01DX009 (ip), vehicle: suspension in saline).

As to `Fc1ccccc1OCC1CO1` (stereo not drawn), the T/C under setting [10] was 114 % of control, the T/C under setting [11] is 110 % of control and the T/C under setting [12] is 108 % of control.

Regarding `S`, the T/C was 95 % of control (dose: 100.0 mg/kg/injection, schedule: Q04DX003 (ip), vehicle: Klucel (hydroxypropylcellulose) (HPC)); 101 % of control (dose: 200.0 mg/kg/injection, schedule: Q04DX003 (ip), vehicle: Klucel (hydroxypropylcellulose) (HPC)); 93 % of control (dose: 400.0 mg/kg/injection, schedule: Q04DX003 (ip), vehicle: Klucel (hydroxypropylcellulose) (HPC)).

Take `C[n+]1ccc(Nc2ccc(NC(=O)c3ccc(Nc4cc[n+](C)c5ccc(N)cc45)cc3N)cc2)cc1`: the T/C by setting is: (dose: 2.0 mg/kg/injection, schedule: Q01DX009 (ip), vehicle: water) 205 % of control; (dose: 4.0 mg/kg/injection, schedule: Q01DX009 (ip), vehicle: water) 316 % of control.

For `Cc1cc(S(=O)(=O)O)c(N)cc1Cl`, the T/C by setting is: under setting [7], 106 % of control; under setting [8], 92 % of control; under setting [9], 103 % of control.

As to `Cc1cc(N)c(C)c(C)c1O`, the T/C runs as follows: under setting [5], 90 % of control; under setting [6], 98 % of control; under setting [7], 88 % of control.

As for `NC(N)=N/N=C(\c1ccc(C(F)(F)F)cc1)c1ccc(Cl)c(Cl)c1`, the T/C under setting [4] was 91 % of control.

As for `C=CC1C2C=CC(CC2)C1O` (stereo not drawn), the T/C is 98 % of control under setting [1], 101 % of control under setting [2] and 104 % of control under setting [3].

As for `O=NN(CCCl)C(=O)Nc1ccccn1`, the T/C was 101 % of control (dose: 12.5 mg/kg/injection, schedule: Q01DX001 (ip), vehicle: other); 94 % of control (dose: 25.0 mg/kg/injection, schedule: Q01DX001 (ip), vehicle: other); 101 % of control (dose: 50.0 mg/kg/injection, schedule: Q01DX001 (ip), vehicle: other); 96 % of control (dose: 100.0 mg/kg/injection, schedule: Q01DX001 (ip), vehicle: other).

Values taken from PubChem BioAssay AID256 (DTP/NCI, 2004).
